Data reported in patent US20260199284A1, “SPECIFIC VASH COMPOUNDS (SVC) INHIBITORS FOR HEART DISEASES” (MT ACT, priority 2023, published 2026).
Entries after “also recorded” stand apart in the source; their conditions may differ.

Legend:
[1] = biological target: T1, Human rhinovirus (HRV) type 14 3C protease (Human rhinovirus 14, UniProt P03303); assay: HRV type 14 3C protease assay; type: biochemical; conditions: increasing dose
T1 construct: Assay using active recombinant Human rhinovirus (HRV) type 14 3C protease
T1 sequence (P03303 1538-1719): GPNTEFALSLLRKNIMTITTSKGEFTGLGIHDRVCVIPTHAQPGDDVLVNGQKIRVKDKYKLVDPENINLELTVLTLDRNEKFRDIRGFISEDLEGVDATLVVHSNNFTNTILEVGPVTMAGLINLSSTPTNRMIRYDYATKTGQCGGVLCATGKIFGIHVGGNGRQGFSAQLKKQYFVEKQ
Description: FIG. 7: Assay using active recombinant Human rhinovirus (HRV) type 14 3C protease Cysteine in absence (neg) or presence (increasing dose) of SVC_01. HRV is a protease with preference for non-aromatic residues at P1′. The optimum recognition site for Human rhinovirus (HRV) type 14 3C protease is LEVLFQ/GP, with a glycine at the P1′ position.
Below, the criteria for selection are detailed: • Protease with documented carboxypeptidase activity towards alpha tubulin. Carboxypeptidase A hydrolyzes peptide bonds of C-terminal residues with aromatic or aliphatic side-chains (FIG. 6). • Cysteine protease with preference for non-aromatic residues at P1′. The optimum recognition site for Human rhinovirus (HRV) type 14 3C protease is LEVLFQ/GP, with a glycine at the P1′ position (FIG. 7). • Cysteine protease with preference for aromatic residues at P1′ site. Alike VASH, cathepsin B prefers an aromatic residue at the P1′ position. This is considered to be our best control for specificity (FIG. 8)

[2] = test system: human adult cardiomyocytes; assay: Western blot of tubulin detyrosination and acetylation in human adult cardiomyocytes; type: cell-based
Description: FIG. 33: human adult cardiomyocytes are treated with vehicle or SVC-01 (inhibitor). Protein lysates are analysed by western blot to evaluate the level of tubulin detyrosination and acetylation.
Specificity of SVC-01 was assayed using both human VASH1 and VASH2 recombinant enzymes. […] Finally, to ensure that regulation of other genes involved in the detyrosination-tyrosination cycle is not affected, we analysed gene expression of all relevant and associated genes following treatment with SVC-02 in adult human cardiomyocytes. We found no alteration of VASH1, VASH2, MATCAP, TTL or SVBP gene expression between vehicle control and SVC-02 treated cells (FIG. 34).

[3] = test system: ZSF1-Lean and Obese rats; assay: Myocardial tubulin detyrosination after IV injection in ZSF1 rats (western blot, immunofluorescence); type: in vivo, rat; conditions: for detyrosinated tubulin in myocardial tissue (words): IV injections, 30 weeks old ZSF1 rats, western blot
Description: FIG. 23: immunofluorescence imaging to detect tubulin detyrosination on LV tissue and evaluate changes in the abundance of detyrosinated tubulin following SVC-02 treatment.
FIG. 24: Quantification of immunofluorescence imaging analysis performed on LV tissue to evaluate changes in microtubule density (SVC-02 as VASHi).
Formalin fixed paraffin embedded (FFPE) sections on glass slides were deparaffinized by sequential washes in xylenes, and decreasing concentrations of ethanol (100%, 95%, 75%, and 50%) followed by ddH2O. Slides were placed in 1× Reveal decloaking solution (Biocare Medical, Catalog #RV1000M) for antigen retrieval. Antigen retrieval was performed using a pressure cooker (Instant Pot Pro 10-in-1 pressure cooker, 8 Quart, Amazon.com) for 15 minutes at high pressure. After cooling, slides underwent a second round of antigen retrieval in 1× Antigen Unmasking Solution, Citric Acid Based (Vector Laboratories, Catalog #H-3300-250) in a pressure cooker for 15 minutes at high pressure. Next, the slides were washed in ddH2O, followed by PBS. The slides were permeabilized with PBS+0.25% Triton X-100, followed by incubation in fish serum blocking buffer (Thermo Scientific, Catalog #37527) containing 0.1% Tween 20 for 1 hour at RT.
Sections were co-stained with Mouse monoclonal (B-5-1-2) antibody to α-tubulin (Sigma-Aldrich, Catalog #T5168; 1:50) and Rabbit polyclonal detyrosinated α-tubulin antibody (ab48389 Lot #GR3425171; 1:50) in blocking buffer for 2 days at RT. Sections were washed in PBS containing 0.1% Tween 20 (PBST) and then incubated in goat anti-rabbit conjugated to Alexa Fluor 647 and goat anti-mouse conjugated to Alexa Fluor 568 secondary antibodies along with Alexa Fluor 488 conjugated WGA (Invitrogen Catalog #W11261; final concentration 25 μg/mL) in PBST for 2 days at RT. The sections were then stained with Hoechst 33342, Trihydrochloride, Trihydrate (Invitrogen Catalog #H3570, final concentration 10 μg/mL in PBS) and mounted in Prolong Diamond Antifade Mountant (Invitrogen Catalog #P36961).
Longitudinally oriented cardiomyocytes within the myocardium were identified. Four channel Z-stacks (4×500 nm slices) of myocardial regions were imaged using a 63× oil immersion objective (1.4 NA) on a Zeiss Airyscan 880 microscope with 18.3 nm×18.3 nm pixel size. The images were background subtracted and maximum intensity projections were generated in FIJI (NIH). Rectangular ROIs were blindly drawn within the cytosolic portion of individual cardiomyocytes, while excluding the nuclei and perinuclear regions, using the WGA and Hoechst channels. The α-tubulin and detyrosinated microtubule images were extracted from the ROIs. […] The microtubule density was calculated as the percent area coverage of the binary maps within each ROI. […]

## O=C(O)CCC[C@H](NC(=O)[C@H]1O[C@@H]1C(=O)C[C@@H](Cc1ccc(OCc2ccccc2)cc1)C(=O)O)C(=O)NCCc1ccccc1 [SVC_01]
[1]
  inhibition of HRV type 14 3C protease: does not reduce activity
[2]
  level of tubulin acetylation: did not affect the level of tubulin acetylation; also recorded: remained unchanged
  level of tubulin detyrosination: significantly reduces the level of tubulin detyrosination; also recorded: significant reduction of tubulin detyrosination

## CCOC(=O)[C@H](Cc1ccc(OCC)cc1)NC(=O)[C@H]1O[C@@H]1C(=O)N[C@@H](Cc1ccc(OCC)cc1)C(=O)OCC [SVC_02]
[3]
  detyrosinated tubulin in myocardial tissue (words): efficient reduction in detyrosinated tubulin
[3]; listed as SVC-02
  detyrosinated tubulin in myocardial tissue (words): significantly reduced detyrosinated tubulin abundance
[3]; lean and obese animals, 8 hours following intravenous injection
  reduction of tubulin detyrosination in heart tissue: about 60%
[3]; obese animals, immunofluorescence, vs vehicle
  density of detyrosinated-microtubules in LV tissue: significant reduction in the density of detyrosinated-microtubules
